Laboratory results reported in US10787452B2 (Vertex Pharmaceuticals Incorporated, priority 2012, dated 2020).

These molecules were tested on HCT116 colorectal cancer cells (assay: Cisplatin sensitization assay (96 h cell viability MTS)). Conditions: 96 h MTS, compound plus Cisplatin.
Format: cell-based
How it was run: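 Simultaneous addition of compound and cisplatin (2-fold series, top 10 μM final, full matrix), followed by 96 h culture at 37° C/5% CO2 and a 1 h MTS viability read.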
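Further: compound concentration needed to lower the Cisplatin-alone IC50 by a set fold.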

| Structure (SMILES) | Cisplatin Sensitization Assay |
| --- | --- |
| CS(=O)(=O)C1CCCN(c2ccncc2NC(=O)c2c(N)nn3cc(F)cnc23)C1 (centres unmarked) [I-N-221, 2-amino-6-fluoro-N-(4-(3-(methylsulfonyl)piperidin-1-yl)pyridin-3-yl)pyrazolo[1,5-a]pyrimidine-3-carboxamide] | ++ (Compounds with a Cisplatin sensitization value >0.02 μM but <0.2 μM are marked with “++.”) |
| Nc1nn2cc(F)cnc2c1C(=O)Nc1cnccc1N1CC(=O)N2CCCC2C1 (centres unmarked) [I-N-222, 2-amino-6-fluoro-N-(4-(4-oxohexahydropyrrolo[1,2-a]pyrazin-2(1H)-yl)pyridin-3-yl)pyrazolo[1,5-a]pyrimidine-3-carboxamide] | ++ (Compounds with a Cisplatin sensitization value >0.02 μM but <0.2 μM are marked with “++.”) |
| Cc1ccnn1-c1ccncc1NC(=O)c1c(N)nn2cc(F)cnc12 [I-N-223, 2-amino-6-fluoro-N-(4-(5-methyl-1H-pyrazol-1-yl)pyridin-3-yl)pyrazolo[1,5-a]pyrimidine-3-carboxamide] | ++ (Compounds with a Cisplatin sensitization value >0.02 μM but <0.2 μM are marked with “++.”) |
| CN1C[C@@H]2CCN(c3ccncc3NC(=O)c3c(N)nn4cc(F)cnc34)C[C@@H]2C1=O [I-N-224, 2-amino-6-fluoro-N-(4-((3aR,7aR)-2-methyl-3-oxohexahydro-1H-pyrrolo[3,4-c]pyridin-5(6H)-yl)pyridin-3-yl)pyrazolo[1,5-a]pyrimidine-3-carboxamide] | + (Compounds with a Cisplatin sensitization value >0.2 μM but <5 μM are marked with “+.”) |
| Cc1ccn(-c2ccncc2NC(=O)c2c(N)nn3cc(F)cnc23)n1 [I-N-225, 2-amino-6-fluoro-N-(4-(3-methyl-1H-pyrazol-1-yl)pyridin-3-yl)pyrazolo[1,5-a]pyrimidine-3-carboxamide] | ++ (Compounds with a Cisplatin sensitization value >0.02 μM but <0.2 μM are marked with “++.”) |
| Nc1nn2cc(F)cnc2c1C(=O)Nc1cnccc1N1CCC2(CC1)COC2 [I-N-226, N-(4-(2-oxa-7-azaspiro[3.5]nonan-7-yl)pyridin-3-yl)-2-amino-6-fluoropyrazolo[1,5-a]pyrimidine-3-carboxamide] | +++ (Compounds with a Cisplatin sensitization value of <0.02 μM are marked with “+++.”) |
| CN1CCOCC1C(=O)N1CCN(c2c(F)cncc2NC(=O)c2c(N)nn3cc(F)cnc23)CC1 (centres unmarked) [I-N-227, 2-amino-6-fluoro-N-(5-fluoro-4-(4-(4-methylmorpholine-3-carbonyl)piperazin-1-yl)pyridin-3-yl)pyrazolo[1,5-a]pyrimidine-3-carboxamide] | +++ (Compounds with a Cisplatin sensitization value of <0.02 μM are marked with “+++.”) |
| Nc1nn2cc(F)cnc2c1C(=O)Nc1cncc(F)c1N1CCN(CC(=O)N2CCC2)CC1 [I-N-228, 2-amino-N-(4-(4-(2-(azetidin-1-yl)-2-oxoethyl)piperazin-1-yl)-5-fluoropyridin-3-yl)-6-fluoropyrazolo[1,5-a]pyrimidine-3-carboxamide] | +++ (Compounds with a Cisplatin sensitization value of <0.02 μM are marked with “+++.”) |
| CN1CC2(CCN(c3c(F)cncc3NC(=O)c3c(N)nn4cc(F)cnc34)CC2)OC1=O [I-N-229, 2-amino-6-fluoro-N-(5-fluoro-4-(3-methyl-2-oxo-1-oxa-3,8-diazaspiro[4.5]decan-8-yl)pyridin-3-yl)pyrazolo[1,5-a]pyrimidine-3-carboxamide] | +++ (Compounds with a Cisplatin sensitization value of <0.02 μM are marked with “+++.”) |
| Nc1nn2cc(F)cnc2c1C(=O)Nc1cnccc1N1CCC(N2CCCC2=O)CC1 [I-N-230, 2-amino-6-fluoro-N-(4-(4-(2-oxopyrrolidin-1-yl)piperidin-1-yl)pyridin-3-yl)pyrazolo[1,5-a]pyrimidine-3-carboxamide] | +++ (Compounds with a Cisplatin sensitization value of <0.02 μM are marked with “+++.”) |
| CN1CC2(CCC1=O)CCN(c1ccncc1NC(=O)c1c(N)nn3cc(F)cnc13)CC2 [I-N-231, 2-amino-6-fluoro-N-(4-(2-methyl-3-oxo-2,9-diazaspiro[5.5]undecan-9-yl)pyridin-3-yl)pyrazolo[1,5-a]pyrimidine-3-carboxamide] | +++ (Compounds with a Cisplatin sensitization value of <0.02 μM are marked with “+++.”) |
| Nc1nn2cc(F)cnc2c1C(=O)Nc1cncc(F)c1N1CC(=O)N2CCCC2C1 (centres unmarked) [I-N-232, 2-amino-6-fluoro-N-(5-fluoro-4-(4-oxohexahydropyrrolo[1,2-a]pyrazin-2(1H)-yl)pyridin-3-yl)pyrazolo[1,5-a]pyrimidine-3-carboxamide] | ++ (Compounds with a Cisplatin sensitization value >0.02 μM but <0.2 μM are marked with “++.”) |
| CN1CCN2CCN(c3ccncc3NC(=O)c3c(N)nn4cc(F)cnc34)CC2C1=O (centres unmarked) [I-N-233, 2-amino-6-fluoro-N-(4-(8-methyl-9-oxohexahydro-1H-pyrazino[1,2-a]pyrazin-2(6H)-yl)pyridin-3-yl)pyrazolo[1,5-a]pyrimidine-3-carboxamide] | ++ (Compounds with a Cisplatin sensitization value >0.02 μM but <0.2 μM are marked with “++.”) |
| CN(C)C(=O)C1CN(c2ccncc2NC(=O)c2c(N)nn3cc(F)cnc23)CCO1 (centres unmarked) [I-N-234, 4-(3-(2-amino-6-fluoropyrazolo[1,5-a]pyrimidine-3-carboxamido)pyridin-4-yl)-N,N-dimethylmorpholine-2-carboxamide] | + (Compounds with a Cisplatin sensitization value >0.2 μM but <5 μM are marked with “+.”) |
| CN1C(=O)CCC12CCN(c1ccncc1NC(=O)c1c(N)nn3cc(F)cnc13)CC2 [I-N-235, 2-amino-6-fluoro-N-(4-(1-methyl-2-oxo-1,8-diazaspiro[4.5]decan-8-yl)pyridin-3-yl)pyrazolo[1,5-a]pyrimidine-3-carboxamide] | ++ (Compounds with a Cisplatin sensitization value >0.02 μM but <0.2 μM are marked with “++.”) |
| CN1CC2(CCN(c3ccncc3NC(=O)c3c(N)nn4cc(F)cnc34)CC2)CC1=O [I-N-236, 2-amino-6-fluoro-N-(4-(2-methyl-3-oxo-2,8-diazaspiro[4.5]decan-8-yl)pyridin-3-yl)pyrazolo[1,5-a]pyrimidine-3-carboxamide] | +++ (Compounds with a Cisplatin sensitization value of <0.02 μM are marked with “+++.”) |
| Cc1cncc(NC(=O)c2c(N)nn3cc(F)cnc23)c1-n1nccc1C [I-N-237] | + (Compounds with a Cisplatin sensitization value >0.2 μM but <5 μM are marked with “+.”) |
| Nc1nn2cc(F)cnc2c1C(=O)Nc1cnccc1N1CCN2C(=O)OCC2C1 (centres unmarked) [I-N-238, 2-amino-6-fluoro-N-(4-(3-oxotetrahydro-1H-oxazolo[3,4-a]pyrazin-7(3H)-yl)pyridin-3-yl)pyrazolo[1,5-a]pyrimidine-3-carboxamide] | ++ (Compounds with a Cisplatin sensitization value >0.02 μM but <0.2 μM are marked with “++.”) |
| Nc1nn2cc(F)cnc2c1C(=O)Nc1cncc(F)c1N1CCC2(CC1)COC2 [I-N-239, 2-amino-6-fluoro-N-(5-fluoro-4-(2-oxa-7-azaspiro[3.5]nonan-7-yl)pyridin-3-yl)pyrazolo[1,5-a]pyrimidine-3-carboxamide] | +++ (Compounds with a Cisplatin sensitization value of <0.02 μM are marked with “+++.”) |
| CN1CCN2CCN(c3c(F)cncc3NC(=O)c3c(N)nn4cc(F)cnc34)CC2C1=O (centres unmarked) [I-N-240, 2-amino-6-fluoro-N-(5-fluoro-4-(8-methyl-9-oxohexahydro-1H-pyrazino[1,2-a]pyrazin-2(6H)-yl)pyridin-3-yl)pyrazolo[1,5-a]pyrimidine-3-carboxamide] | ++ (Compounds with a Cisplatin sensitization value >0.02 μM but <0.2 μM are marked with “++.”) |
| Nc1nn2cc(F)cnc2c1C(=O)Nc1cnccc1N1CCC(c2ncon2)CC1 [I-N-241, N-(4-(4-(1,2,4-oxadiazol-3-yl)piperidin-1-yl)pyridin-3-yl)-2-amino-6-fluoropyrazolo[1,5-a]pyrimidine-3-carboxamide] | +++ (Compounds with a Cisplatin sensitization value of <0.02 μM are marked with “+++.”) |
| Cc1ncnn1-c1c(F)cncc1NC(=O)c1c(N)nn2cc(F)cnc12 [I-N-242, 2-amino-6-fluoro-N-(5-fluoro-4-(5-methyl-1H-1,2,4-triazol-1-yl)pyridin-3-yl)pyrazolo[1,5-a]pyrimidine-3-carboxamide] | + (Compounds with a Cisplatin sensitization value >0.2 μM but <5 μM are marked with “+.”) |
| CC1(S(C)(=O)=O)CCN(c2ccncc2NC(=O)c2c(N)nn3cc(F)cnc23)CC1 [I-N-243, 2-amino-6-fluoro-N-(4-(4-methyl-4-(methylsulfonyl)piperidin-1-yl)pyridin-3-yl)pyrazolo[1,5-a]pyrimidine-3-carboxamide] | +++ (Compounds with a Cisplatin sensitization value of <0.02 μM are marked with “+++.”) |
| Nc1nn2cc(F)cnc2c1C(=O)Nc1cnccc1N1CCN2C(=O)CCCC2C1 (centres unmarked) [I-N-244, 2-amino-6-fluoro-N-(4-(6-oxohexahydro-1H-pyrido[1,2-a]pyrazin-2(6H)-yl)pyridin-3-yl)pyrazolo[1,5-a]pyrimidine-3-carboxamide] | +++ (Compounds with a Cisplatin sensitization value of <0.02 μM are marked with “+++.”) |
| CC(C)N1CCN2CCN(c3ccncc3NC(=O)c3c(N)nn4cc(F)cnc34)CC2C1=O (centres unmarked) [I-N-245, 2-amino-6-fluoro-N-(4-(8-isopropyl-9-oxohexahydro-1H-pyrazino[1,2-a]pyrazin-2(6H)-yl)pyridin-3-yl)pyrazolo[1,5-a]pyrimidine-3-carboxamide] | ++ (Compounds with a Cisplatin sensitization value >0.02 μM but <0.2 μM are marked with “++.”) |
| Nc1nn2cc(F)cnc2c1C(=O)Nc1cncc(F)c1N1CCCC1 [I-N-246, 2-amino-6-fluoro-N-(5-fluoro-4-(pyrrolidin-1-yl)pyridin-3-yl)pyrazolo[1,5-a]pyrimidine-3-carboxamide] | ++ (Compounds with a Cisplatin sensitization value >0.02 μM but <0.2 μM are marked with “++.”) |
